Measured values from US20110039721A1, “METHOD FOR PREDICTION ABOUT CARCINOGENICITY OF SUBSTANCE IN RODENT” (Chemicals Evaluation and Research Institute, priority 2007, published 2011).

Tests used:
[1] = system: mRNA expressed from the genes (A) to (D) in rat liver; assay: Behavior of genes (mRNA expression level, oligo-DNA microarray) in rat liver after 28-day oral administration; format: in vivo; settings: mRNA vs vehicle control group
In short: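 Rat liver RNA after 28 days of daily gavage dosing (male F344, 5 weeks old, four per group). A change reaching 1.5-fold, or 1/1.5, against solvent control scores as significant; opposite direction versus another carcinogen scores as not significant.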

[2] = system: liver; settings: in vivo; cited from earlier work
[3] = system: rodent; settings: in vivo; cited from earlier work
[4] = gene group (A), Unigene No. Rn.167075
[5] = gene group (C), Unigene No. Rn.120914

CCCCC(CC)COC(=O)c1ccccc1C(=O)OCC(CC)CCCC (centres unmarked) [TS002, Di(2-ethylhexyl)phthalate]
Behavior of gene caused by administration of chemical substance, Gene No. 4846 ([1]; gene group (A), Unigene No. Rn.144554): −
Behavior of gene caused by administration of chemical substance, Gene No. 2026 [1, 4]: +
Behavior of gene caused by administration of chemical substance, Gene No. 4218 [1, 4]: −
Behavior of gene caused by administration of chemical substance, Gene No. 6182 ([1]; gene group (A), Unigene No. Rn.5834): −
Behavior of gene caused by administration of chemical substance, Gene No. 5600 ([1]; gene group (A), Unigene No. Rn.9836): −
Behavior of gene caused by administration of chemical substance, Gene No. 1494 ([1]; gene group (B), Unigene No. Rn.1430): +
Behavior of gene caused by administration of chemical substance, Gene No. 2045 ([1]; gene group (B), Unigene No. Rn.19329): +
Behavior of gene caused by administration of chemical substance, Gene No. 2203 ([1]; gene group (B), Unigene No. Rn.21240): +
Behavior of gene caused by administration of chemical substance, Gene No. 533 ([1]; gene group (C), Unigene No. Rn.106184): +
Behavior of gene caused by administration of chemical substance, Gene No. 725 ([1]; gene group (C), Unigene No. Rn.108075): +
Behavior of gene caused by administration of chemical substance, Gene No. 1163 ([1]; gene group (C), Unigene No. Rn.11766): −
Behavior of gene caused by administration of chemical substance, Gene No. 4973 ([1]; gene group (C), Unigene No. Rn.118529): +
Behavior of gene caused by administration of chemical substance, Gene No. 4095 ([1]; gene group (C), Unigene No. Rn.119024): +
Behavior of gene caused by administration of chemical substance, Gene No. 1334 [1, 5]: −
Behavior of gene caused by administration of chemical substance, Gene No. 6620 [1, 5]: −
Behavior of gene caused by administration of chemical substance, Gene No. 6303 ([1]; gene group (C), Unigene No. Rn.123063): −
Behavior of gene caused by administration of chemical substance, Gene No. 5878 ([1]; gene group (C), Unigene No. Rn.143213): −
Behavior of gene caused by administration of chemical substance, Gene No. 1131 ([1]; gene group (C), Unigene No. Rn.144946): +
Behavior of gene caused by administration of chemical substance, Gene No. 1562 ([1]; gene group (C), Unigene No. Rn.14744): −
Behavior of gene caused by administration of chemical substance, Gene No. 1741 ([1]; gene group (C), Unigene No. Rn.1647): −
Behavior of gene caused by administration of chemical substance, Gene No. 893 ([1]; gene group (C), Unigene No. Rn.164817): −
Behavior of gene caused by administration of chemical substance, Gene No. 6026 ([1]; gene group (C), Unigene No. Rn.167685): −
Behavior of gene caused by administration of chemical substance, Gene No. 154 ([1]; gene group (C), Unigene No. Rn.185941): −
Behavior of gene caused by administration of chemical substance, Gene No. 1993 ([1]; gene group (C), Unigene No. Rn.18728): −
Behavior of gene caused by administration of chemical substance, Gene No. 813 ([1]; gene group (C), Unigene No. Rn.201760): +
Behavior of gene caused by administration of chemical substance, Gene No. 2494 ([1]; gene group (C), Unigene No. Rn.23969): −
Behavior of gene caused by administration of chemical substance, Gene No. 2546 ([1]; gene group (C), Unigene No. Rn.24561): −
Behavior of gene caused by administration of chemical substance, Gene No. 3776 ([1]; gene group (C), Unigene No. Rn.43232): −
Behavior of gene caused by administration of chemical substance, Gene No. 3929 ([1]; gene group (C), Unigene No. Rn.4620): −
Behavior of gene caused by administration of chemical substance, Gene No. 1119 ([1]; gene group (C), Unigene No. Rn.9757): −
Behavior of gene caused by administration of chemical substance, Gene No. 6742 ([1]; gene group (C), Unigene No. Rn.9779): +
Behavior of gene caused by administration of chemical substance, Gene No. 5634 ([1]; gene group (C), Unigene No. Rn.9862): −
Behavior of gene caused by administration of chemical substance, Gene No. 5726 ([1]; gene group (D), Unigene No. Rn.9939): −
Liver carcinogenicity [2]: Cr+
Carcinogenicity [3]: C+
